Measured values taken from PMC6195434 (Environmental science & technology, 2018).
Where two headings read alike, the source gives them in different places.

How the values were obtained:
[1] = molecular target: T1, RyR1 (Oryctolagus cuniculus, UniProt P11716); assay: Equilibrium [3H]Ry binding analysis on RyR1-enriched microsomal membranes; set-up: species or system New Zealand White rabbits; settings: for RyR1 inhibitory potency compared with 6 / decrease of apparent activation potency relative to 6: Figure 3C table insert; for maximum efficacy relative to 6: higher maximum efficacy at 50 μM compared to that reached by 6 at 1 μM; for decrease of apparent activation potency relative to 6: less potent activator than 6; for activity in enhancing [3H]Ry binding to RyR1: concentration-response, efficacy at 10 μM, Figure 3A, B
[2] = molecular target: SERCA1a (Oryctolagus cuniculus, UniProt P04191); assay: biochemical; assay type: biochemical, New Zealand White rabbits; settings: for inhibition at 10 µM: read-out: SERCA1a inhibition; for activity toward SERCA1a: Figure 5G
[3] = test system: microsomal (JSR) membrane vesicles; assay: Microsomal Ca2+ fluxes and Ca2+-induced Ca2+ release; assay type: biochemical, New Zealand White rabbits
[4] = test system: CHO (Chinese hamster ovary) cells; settings: cited from earlier work
[5] = molecular target: T1, RyR1; settings: previous data; cited from earlier work
[6] = test system: Platynereis dumerilii embryos; settings: cited from earlier work
[7] = at 2 μM, baseline = binding in presence of Veh alone, p < 0.05 vs Veh
[8] = expanded concentration range, Figure 3C
[9] = 5 or 10 μM, initial 60 s release rate, vesicles loaded with 4 × 45 nmole Ca2+

T1 sequence (P11716 whole entry): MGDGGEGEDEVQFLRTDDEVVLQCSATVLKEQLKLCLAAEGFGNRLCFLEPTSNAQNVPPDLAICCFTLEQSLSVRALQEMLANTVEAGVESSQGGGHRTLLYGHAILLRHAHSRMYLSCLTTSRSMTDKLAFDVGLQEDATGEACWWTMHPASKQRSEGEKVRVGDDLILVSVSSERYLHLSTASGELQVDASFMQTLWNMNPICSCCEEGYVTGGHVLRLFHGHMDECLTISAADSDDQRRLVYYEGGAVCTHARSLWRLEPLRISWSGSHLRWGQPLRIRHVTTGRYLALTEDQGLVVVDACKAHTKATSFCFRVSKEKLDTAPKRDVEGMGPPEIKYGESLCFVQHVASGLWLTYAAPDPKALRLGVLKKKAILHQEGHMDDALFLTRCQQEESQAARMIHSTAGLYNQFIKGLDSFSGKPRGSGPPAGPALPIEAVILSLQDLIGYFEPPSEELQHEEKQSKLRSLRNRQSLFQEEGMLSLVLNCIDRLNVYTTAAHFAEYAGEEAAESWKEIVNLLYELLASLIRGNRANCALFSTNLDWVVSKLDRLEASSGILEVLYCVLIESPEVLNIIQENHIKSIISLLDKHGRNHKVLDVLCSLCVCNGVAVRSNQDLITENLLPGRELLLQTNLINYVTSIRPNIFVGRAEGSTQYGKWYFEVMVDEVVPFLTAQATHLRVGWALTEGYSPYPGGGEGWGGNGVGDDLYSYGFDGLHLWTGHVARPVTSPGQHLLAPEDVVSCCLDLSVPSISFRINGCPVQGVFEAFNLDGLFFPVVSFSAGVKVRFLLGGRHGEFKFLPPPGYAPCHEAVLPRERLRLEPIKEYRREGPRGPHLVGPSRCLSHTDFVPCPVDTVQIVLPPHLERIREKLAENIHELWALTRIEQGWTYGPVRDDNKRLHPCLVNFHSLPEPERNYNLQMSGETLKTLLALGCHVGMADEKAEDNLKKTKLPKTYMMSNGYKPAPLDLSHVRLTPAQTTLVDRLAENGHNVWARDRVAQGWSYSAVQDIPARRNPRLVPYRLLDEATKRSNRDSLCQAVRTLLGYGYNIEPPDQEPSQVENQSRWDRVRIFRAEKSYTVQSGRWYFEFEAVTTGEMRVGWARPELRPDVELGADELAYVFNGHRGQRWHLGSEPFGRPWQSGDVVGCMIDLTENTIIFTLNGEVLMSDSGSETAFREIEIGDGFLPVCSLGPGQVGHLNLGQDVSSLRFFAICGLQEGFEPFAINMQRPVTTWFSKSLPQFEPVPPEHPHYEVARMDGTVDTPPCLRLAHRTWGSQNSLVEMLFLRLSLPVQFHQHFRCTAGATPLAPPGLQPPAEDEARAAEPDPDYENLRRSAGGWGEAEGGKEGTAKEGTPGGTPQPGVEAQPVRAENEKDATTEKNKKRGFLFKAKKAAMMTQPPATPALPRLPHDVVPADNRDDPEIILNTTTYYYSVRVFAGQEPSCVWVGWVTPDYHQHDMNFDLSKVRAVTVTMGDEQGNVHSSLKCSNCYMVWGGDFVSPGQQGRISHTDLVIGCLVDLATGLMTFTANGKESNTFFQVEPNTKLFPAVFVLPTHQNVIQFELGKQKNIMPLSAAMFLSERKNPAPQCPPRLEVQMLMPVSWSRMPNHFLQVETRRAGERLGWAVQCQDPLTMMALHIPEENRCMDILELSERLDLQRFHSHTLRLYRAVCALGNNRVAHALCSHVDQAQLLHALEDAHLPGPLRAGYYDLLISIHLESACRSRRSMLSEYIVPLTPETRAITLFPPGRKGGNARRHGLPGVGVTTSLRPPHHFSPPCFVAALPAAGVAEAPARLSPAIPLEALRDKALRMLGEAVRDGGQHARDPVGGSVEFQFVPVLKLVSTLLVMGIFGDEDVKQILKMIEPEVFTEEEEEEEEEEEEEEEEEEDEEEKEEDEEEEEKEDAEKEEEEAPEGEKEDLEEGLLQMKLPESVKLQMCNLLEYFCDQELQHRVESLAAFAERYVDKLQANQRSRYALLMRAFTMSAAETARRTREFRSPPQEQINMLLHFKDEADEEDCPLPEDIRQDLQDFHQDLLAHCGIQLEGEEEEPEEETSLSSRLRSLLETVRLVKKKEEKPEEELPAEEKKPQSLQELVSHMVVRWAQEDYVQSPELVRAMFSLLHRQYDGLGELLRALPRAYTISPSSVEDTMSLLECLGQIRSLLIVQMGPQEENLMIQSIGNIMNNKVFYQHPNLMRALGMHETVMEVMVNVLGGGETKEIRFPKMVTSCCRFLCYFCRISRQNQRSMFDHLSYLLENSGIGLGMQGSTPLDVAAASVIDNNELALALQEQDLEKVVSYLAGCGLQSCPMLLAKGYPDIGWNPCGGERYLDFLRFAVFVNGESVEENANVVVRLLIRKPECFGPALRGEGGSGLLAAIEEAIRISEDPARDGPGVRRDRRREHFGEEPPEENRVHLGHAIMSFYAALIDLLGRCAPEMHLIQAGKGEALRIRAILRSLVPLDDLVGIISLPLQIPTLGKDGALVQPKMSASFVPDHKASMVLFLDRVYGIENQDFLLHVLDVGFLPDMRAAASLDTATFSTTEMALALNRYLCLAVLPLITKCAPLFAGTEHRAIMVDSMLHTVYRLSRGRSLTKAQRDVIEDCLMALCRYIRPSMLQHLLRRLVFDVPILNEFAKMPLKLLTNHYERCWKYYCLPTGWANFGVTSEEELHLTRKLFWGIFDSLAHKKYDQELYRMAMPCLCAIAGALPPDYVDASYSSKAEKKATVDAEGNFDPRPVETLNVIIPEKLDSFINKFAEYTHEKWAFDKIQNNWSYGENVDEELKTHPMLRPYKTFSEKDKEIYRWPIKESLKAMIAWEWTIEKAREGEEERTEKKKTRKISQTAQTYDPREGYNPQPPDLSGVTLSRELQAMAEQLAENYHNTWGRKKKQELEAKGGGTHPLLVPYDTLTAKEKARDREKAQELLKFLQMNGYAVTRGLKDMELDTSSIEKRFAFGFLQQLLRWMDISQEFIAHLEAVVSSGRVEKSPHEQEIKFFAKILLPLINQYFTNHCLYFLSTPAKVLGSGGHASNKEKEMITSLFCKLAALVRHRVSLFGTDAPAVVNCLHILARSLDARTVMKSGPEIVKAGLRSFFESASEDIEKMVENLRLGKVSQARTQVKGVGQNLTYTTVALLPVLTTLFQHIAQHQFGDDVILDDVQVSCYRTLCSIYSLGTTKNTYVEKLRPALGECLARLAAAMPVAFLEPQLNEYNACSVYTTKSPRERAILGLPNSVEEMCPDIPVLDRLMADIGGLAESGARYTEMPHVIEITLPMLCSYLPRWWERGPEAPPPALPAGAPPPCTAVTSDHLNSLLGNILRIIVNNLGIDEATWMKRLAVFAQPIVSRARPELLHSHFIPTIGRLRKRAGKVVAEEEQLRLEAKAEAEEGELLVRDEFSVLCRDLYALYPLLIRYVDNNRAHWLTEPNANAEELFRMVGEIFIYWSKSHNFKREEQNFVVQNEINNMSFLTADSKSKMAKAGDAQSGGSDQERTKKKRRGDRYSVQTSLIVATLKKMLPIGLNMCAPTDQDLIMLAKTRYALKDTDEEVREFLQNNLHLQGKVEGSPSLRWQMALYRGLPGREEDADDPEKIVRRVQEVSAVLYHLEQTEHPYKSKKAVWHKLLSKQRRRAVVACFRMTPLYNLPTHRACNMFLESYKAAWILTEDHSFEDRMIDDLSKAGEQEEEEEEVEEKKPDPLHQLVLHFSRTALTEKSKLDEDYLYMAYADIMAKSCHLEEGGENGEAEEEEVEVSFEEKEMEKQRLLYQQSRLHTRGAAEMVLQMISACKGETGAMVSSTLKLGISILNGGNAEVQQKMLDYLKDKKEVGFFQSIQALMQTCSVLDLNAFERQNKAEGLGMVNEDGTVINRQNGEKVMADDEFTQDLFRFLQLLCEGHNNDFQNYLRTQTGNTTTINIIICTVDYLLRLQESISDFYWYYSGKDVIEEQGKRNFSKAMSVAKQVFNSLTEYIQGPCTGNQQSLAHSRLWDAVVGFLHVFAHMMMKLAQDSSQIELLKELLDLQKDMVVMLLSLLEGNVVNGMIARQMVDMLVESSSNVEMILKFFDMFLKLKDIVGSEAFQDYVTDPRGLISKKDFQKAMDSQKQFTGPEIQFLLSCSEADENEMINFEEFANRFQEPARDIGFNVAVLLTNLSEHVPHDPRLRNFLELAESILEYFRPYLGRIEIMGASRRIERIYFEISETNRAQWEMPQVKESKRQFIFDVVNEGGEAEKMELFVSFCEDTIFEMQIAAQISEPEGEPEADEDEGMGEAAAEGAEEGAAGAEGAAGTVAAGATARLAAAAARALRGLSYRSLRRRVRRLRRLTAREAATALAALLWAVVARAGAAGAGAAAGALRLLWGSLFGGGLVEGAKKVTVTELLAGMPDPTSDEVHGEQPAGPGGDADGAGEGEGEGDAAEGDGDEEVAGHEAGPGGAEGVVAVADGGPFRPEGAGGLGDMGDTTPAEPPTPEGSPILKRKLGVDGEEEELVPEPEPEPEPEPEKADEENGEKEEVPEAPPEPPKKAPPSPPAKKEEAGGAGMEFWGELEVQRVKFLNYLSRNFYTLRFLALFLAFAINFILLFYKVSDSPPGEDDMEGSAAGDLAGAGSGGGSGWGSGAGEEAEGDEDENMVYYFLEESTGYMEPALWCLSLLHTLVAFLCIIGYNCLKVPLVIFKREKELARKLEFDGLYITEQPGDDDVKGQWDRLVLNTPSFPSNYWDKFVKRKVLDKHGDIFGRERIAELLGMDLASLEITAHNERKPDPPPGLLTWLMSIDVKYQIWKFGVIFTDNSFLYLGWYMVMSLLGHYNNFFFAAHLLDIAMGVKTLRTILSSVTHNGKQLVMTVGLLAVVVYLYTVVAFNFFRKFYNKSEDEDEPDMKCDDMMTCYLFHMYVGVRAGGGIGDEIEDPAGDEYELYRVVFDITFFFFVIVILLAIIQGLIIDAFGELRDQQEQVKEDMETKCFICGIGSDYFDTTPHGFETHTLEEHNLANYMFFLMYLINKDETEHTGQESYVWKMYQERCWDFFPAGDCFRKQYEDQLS
T1 sequence (P62943 2-108 partner limits assumed): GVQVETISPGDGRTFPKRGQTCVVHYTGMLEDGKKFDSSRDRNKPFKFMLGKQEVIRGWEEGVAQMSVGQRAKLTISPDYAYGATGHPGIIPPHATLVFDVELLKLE

Q: Which “RyR1 inhibitory potency compared with 6” value [1] does the source give for `Brc1cc(Br)c(Br)[nH]1` [Compound 34, 2,3,5-tribromopyrrole] here?
A: The value was “weaker inhibitors than 6”.

Q: What about the “enhancement of [3H]Ry binding to RyR1 compared to baseline” value (shortened to “enhancement … compared to baseline”) [1, 7] of the same compound?
A: Its value is at least 1.5 fold.

Q: What about the “mode of modulation of RyR1” value [1, 8] of the same compound?
A: Its value is “biphasic”.

Q: And the “maximum efficacy relative to 6” value [1]?
A: Its value is 2.5 fold.

Q: What about the “decrease of apparent activation potency relative to 6” value [1] of the same compound?
A: Its value is 107 fold.

Q: What about the inhibition at 10 µM [2] of the same compound?
A: Its inhibition at 10 µM is 48%.

Q: And the “net release of accumulated Ca2+ from loaded microsomal vesicles” value (shortened to “net release of accumulated Ca2+”) [3, 9]?
A: Its value is “triggered dose-dependent Ca^2+ efflux”.

Q: And the “cytotoxicity” value [4]?
A: The value was “cytotoxic”.

Q: And the “genotoxicity” value [4]?
A: Its value is “genotoxic”.

Q: Which “enhancement … compared to baseline” value [1, 7] does the source give for `Clc1[nH]c2ccccc2c1Cl` [Compound 13, 2,3-dichloroindole] here?
A: The value was at least 1.5 fold.

Q: With `CN1C(=O)C(Br)=C(Br)C1=O` [Compound 28, 2,3-dibromo-N-methylmaleimide] as the compound, how does the “enhancement … compared to baseline” value [1, 7] read?
A: Its value is at least 1.5 fold.

Q: And the “mode of modulation of RyR1” value [1, 8]?
A: Its value is “biphasic”.

Q: Which “mode of action toward RyR1” value [5] does the source give for `Brc1ccc(Oc2cc(Br)ccc2Br)c(Br)c1` [BDE-49] here?
A: The value was “monotonic”.

Q: With `Oc1cc(Br)c(Oc2ccc(Br)cc2Br)cc1Br` [Compound 4-OH-BDE-49, 4′hydroxy-2,2′,4,5′-tetrabromodiphenyl ether] as the compound, how does the “mode of action toward RyR1” value [5] read?
A: The value was “biphasic”.

Q: With `O=C1NC(=O)C(Br)=C1Br` [Compound 6, 2,3-dibromomaleimide] as the compound, how does the EC50 [1] read?
A: Its EC50 is 360 nM.

Q: And the IC50 [1]?
A: The IC50 was 3000 nM.

Q: What about the “concentration at which RyR1 inhibitory phase was detected” value [1] of the same compound?
A: Its value is under 5 µM.

Q: What about the “concentration that maximally activated RyR1” value [1] of the same compound?
A: Its value is 0.6−1.0 μM.

Q: What about the “enhancement … compared to baseline” value [1] of the same compound?
A: The value was at least 1.5 fold.

Q: And the “mode of modulation of RyR1” value [1]?
A: The value was “biphasic”.

Q: What about the “SERCA1a inhibition” value [2] of the same compound?
A: The value was “without inhibition of SERCA1a”.

Q: And the “concentration at which SERCA1a inhibition was detected (only the highest tested)” value [2]?
A: Its value is 10 µM.

Q: What about the inhibition at 10 µM [2] of the same compound?
A: The inhibition at 10 µM was 50%.

Q: And the “Ca2+-induced Ca2+ release rate vs control” value [3]?
A: The value was “significantly higher rates of release than control”.

Q: And the “net release of accumulated Ca2+” value [3]?
A: The value was “failed to trigger net Ca^2+ efflux”.

Q: What about the “sensitizing influence on calcium-induced calcium release” value [3] of the same compound?
A: The value was “did not reach statistical significance”.

Q: For `Brc1[nH]c(Br)c(Br)c1Br` [Compound 31, tetrabromopyrrole], which “RyR1 inhibitory potency compared with 6” value [1] is on record?
A: Its value is “weaker inhibitors than 6”.

Q: And the “enhancement … compared to baseline” value [1, 7]?
A: Its value is at least 1.5 fold.

Q: What about the “mode of modulation of RyR1” value [1, 8] of the same compound?
A: Its value is “biphasic”.

Q: And the “maximum efficacy relative to 6” value [1]?
A: The value was 2.5 fold.

Q: What about the “decrease of apparent activation potency relative to 6” value [1] of the same compound?
A: The value was 68 fold.

Q: And the SERCA1a inhibition ([2]; at 10 μM)?
A: Its SERCA1a inhibition is 80%.

Q: And the “net release of accumulated Ca2+” value [3, 9]?
A: The value was “triggered dose-dependent Ca^2+ efflux”.

Q: What about the “developmental toxicity” value [6] of the same compound?
A: Its value is “potent developmental toxicity”.

Q: With `c1cc[nH]c1` [Compound 24, pyrrole] as the compound, how does the “activity in enhancing [3H]Ry binding to RyR1” value (“activity in enhancing” below) [1] read?
A: The value was “inactive”.

Q: And the “activity toward SERCA1a” value [2]?
A: Its value is “inactive”.

Q: With `Oc1c(Br)cc(Oc2c(Br)cc(Br)cc2Br)cc1Br` [Compound 18, 4′-hydroxy-2,3′,4,5′,6-pentabromodiphenyl ether] as the compound, how does the “enhancement … compared to baseline” value [1, 7] read?
A: The value was at least 1.5 fold.

Q: And the SERCA1a inhibition ([2]; at 2.0 μM)?
A: The SERCA1a inhibition was over 80%.

Q: What about the SERCA1a inhibition ([2]; at 10 μM) of the same compound?
A: Its SERCA1a inhibition is ~ 90%.

Q: And the “net release of accumulated Ca2+” value [3, 9]?
A: The value was “triggered dose-dependent Ca^2+ efflux”.

Q: Which “enhancement … compared to baseline” value [1, 7] does the source give for Hexabromobipyrroles [Compound 25] here?
A: The value was at least 1.5 fold.

Q: What about the SERCA1a inhibition ([2]; at 2.0 μM) of the same compound?
A: The SERCA1a inhibition was over 80%.

Q: What about the SERCA1a inhibition ([2]; at 10 μM) of the same compound?
A: Its SERCA1a inhibition is ~ 90%.

Q: And the “net release of accumulated Ca2+” value [3, 9]?
A: Its value is “triggered dose-dependent Ca^2+ efflux”.

Q: What about the “loading capacity of calcium into microsomal vesicles” value ([3]; concentration-dependent, Figure SI3) of the same compound?
A: Its value is “diminished the loading capacity”.

Q: Which “activity in enhancing” value [1] does the source give for `Brc1c[nH]c(Br)c1Br` [Compound 26, 2,3,4-tribromopyrrole] here?
A: Its value is “inactive”.

Q: What about the “activity toward SERCA1a” value [2] of the same compound?
A: Its value is “inactive”.

Q: What about the “net release of accumulated Ca2+” value [3, 9] of the same compound?
A: The value was “failed to trigger net release”.

Q: With `Brc1[nH]c2ccccc2c1Br` [Compound 14, 2,3-dibromoindole] as the compound, how does the “enhancement … compared to baseline” value [1, 7] read?
A: Its value is at least 1.5 fold.

Q: What about the inhibition at 10 µM [2] of the same compound?
A: Its inhibition at 10 µM is 60%.

Q: And the “net release of accumulated Ca2+” value [3, 9]?
A: Its value is “triggered dose-dependent Ca^2+ efflux”.

Q: Which “activity in enhancing” value [1] does the source give for `CCOC(=O)c1cc(Br)c[nH]1` [Compound 27, ethyl-4-bromopyrrole-2-carboxylate] here?
A: The value was “inactive”.

Q: What about the “activity toward SERCA1a” value [2] of the same compound?
A: Its value is “inactive”.

Q: And the “net release of accumulated Ca2+” value [3, 9]?
A: The value was “failed to trigger net release”.
